Assay results as given in patent publication US20210186947A1, “TOMM6-INTERACTING EXTRACTS AND COMPOUNDS FOR USE IN THE TREATMENT AND PROPHYLAXIS OF NERVOUS SYSTEM DISEASES, ATHEROSCLEROSIS, HEPATITIS B INFECTION AND HUMAN PAPILLOMA VIRUS (HPV) INFECTION” (ETH ZURICH, priority 2018, published 2021).
Changes are numbered by the printed parent chain.

Key:
TOMM6 [1] = biological target: T1, TOMM6 (Homo sapiens, UniProt Q96B49); experiment: Screening for TOMM6-inducing compounds in HEK cells, TOMM6 immunoblot; type: cell-based; set-up: endogenous in cells; host or cells: HEK cells; conditions: final concentration 20 microM, 60 h
T1 sequence (Q96B49 1-74): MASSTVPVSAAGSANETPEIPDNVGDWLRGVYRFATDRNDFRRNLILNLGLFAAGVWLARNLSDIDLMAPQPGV
Description: For immunoblot detection of (hippocampal or HEK cell) proteins, e.g. Tomm6/TOMM6 and Atp6v1a/ATP6V1A, (hippocampal) tissue was pulverized under liquid nitrogen, and HEK cell pellets were directly subjected to protein extraction. Proteins were extracted for 30 min at 4° C. with solubilization buffer (1% sodium deoxycholate, 0.1% SDS, 0.1% NP40, 5 mM EDTA, 50 mM Tris, pH 8.0) supplemented with protease/phosphatase inhibitors (Cat. No. P8349, and/or PPC1010, Sigma-Aldrich, St. Louis, Mo., USA). Particulate material was removed by centrifugation at 50 000×g for 20 min at 4° C. Solubilized proteins were concentrated and delipidated by precipitation with ice-cold acetone/methanol (12:2, final concentration 83%) for 90 min at 4° C. The pellet was dissolved in SDS-sample buffer supplemented with 2% SDS, 0.1 M DTT (or 5% mercaptoethanol), and 6 M urea for 90 min at room temperature. Proteins were stored at a concentration of 0.5 mg-1 mg/ml at −70° C. for further use. Immunoblot detection of proteins was performed with affinity-purified antibodies or F(ab)2 fragments of the respective antibodies after separation of proteins by urea-containing SDS-PAGE (7.5%-10%) under reducing conditions and electrophoretic protein transfer to PVDF membranes in a tank transfer cell (Mini Trans-Blot cell, Bio-Rad GmbH, Munchen, Germany). Bound antibodies were visualized with F(ab)2 fragments of enzyme-coupled secondary antibodies (Dianova GmbH, Hamburg, Germany) pre-absorbed to mouse serum proteins, or by enzyme-coupled protein A (EMD Millipore, Merck KGaA, Darmstadt, Germany) as applicable, and followed by enhanced chemiluminescent detection (ECL Plus, and/or ECL Prime, Amersham, GE Healthcare Life Sciences, Glattbrugg, Switzerland).
TOMM6-inducing compounds were searched for and a screening system was established in HEK cells. HEK cells were cultured in the absence and presence of a test compound at a final concentration of 20 microM. Cells were harvested, proteins were extracted and TOMM6 protein levels were determined in immunoblot with TOMM6-specific antibodies. […] The following TOMM6-interacting (inducing) compounds were identified: Compound-3: N-[(3-chlorophenyl)methyl]-2-(3-piperidyl)oxazole-4-carboxamide; Compound-4: N-[(3,4-dichlorophenyl)methyl]-2-(3-piperidyl)oxazole-4-carboxamide; Compound-5: 2-[(1S)-1-amino-2-methyl-butyl]-N-[(3,4-dichlorophenyl)methyl]oxazole-4-carboxamide; Compound-6: 2-[(1S)-1-amino-2-methyl-propyl]-N-[(3,4-dichlorophenyl)methyl]oxazole-4-carboxamide; Compound-7: 6-(aminomethyl)-4-(4-chlorophenyl)-2-methyl-pyridine-3-carboxamide; Compound-8: 4-(2,4-dichlorophenyl)-6-[(1,3-dioxoisoindolin-2-yl)methyl]-2-methyl-pyridine-3-carboxamide; Compound-9: 4-(4-chlorophenyl)-6-[(1,3-dioxoisoindolin-2-yl)methyl]-2-methyl-pyridine-3-carboxamide; and Compound-10: 4-(4-chlorophenyl)-6-(hydroxymethyl)-2-methyl-pyridine-3-carboxamide).

[2] = system: hyperphosphorylated PHF-Tau; experiment: Hippocampal hyperphosphorylated PHF-Tau in Tg2576 mice subjected to CUMS, binding assay with [125I]-labeled AT8 antibody; type: in vivo; conditions: 15 months-old Tg2576 mice, 3 months of CUMS, treated during CUMS; compounds 10 mg/kg/d
[3] = system: hippocampal neuronal cell bodies (NeuN); experiment: Hippocampal neuronal loss in Tg2576 mice subjected to CUMS, binding assay with [125I]-labeled anti-NeuN antibody; type: in vivo; conditions: 15 months-old Tg2576 mice, 3 months of CUMS, treated during CUMS; compounds 10 mg/kg/d
Tomm6 [4] = biological target: T2, Tomm6 (Mus musculus, UniProt Q9CQN3); experiment: Immunoblot detection of hippocampal Tomm6 protein in treated Tg2576 mice; type: in vivo; conditions: Tg2576 AD mice subjected to the CUMS protocol, treated during CUMS (10 mg/kg/d)
T2 construct: hippocampi were isolated from 5-10 aged Tg2576 mice, pulverized under liquid nitrogen and solubilized; from tissue; host or cells: hippocampus of Tg2576 mice
T2 sequence (Q9CQN3 1-74): T1 sequence (Q96B49 1-74) with T5G, P7T, N15S, T17A, P18S, I20V, Y32F

[5] = Measurement of serum level in dogs by HPLC; type: in vivo, German shepherd dogs; conditions: for peak serum concentration: t=1 h
Description: (§1) Serum concentrations of alizarin were determined with serum isolated from the blood of male and female German shepherd dogs (age: 8-9 months) taken at different time points (0.5 h, 1 h, 2 h, 4 h, 6 h, 8 h, 24 h) after oral intake of the indicated doses for 4 weeks. In addition, serum concentrations of alizarin (Compound-1) were determined in male and female Sprague Dawley rats (body weight: 200-250 g) treated for 1 month and/or three months by oral gavage of alizarin at a once daily dose of 100 mg/kg, 50 mg/kg, 25 mg/kg and 12.5 mg/kg. Serum proteins were removed by acetonitrile precipitation, and alizarin was extracted by chloroform before separation on an HPLC-C18 column (Poroshell 120 EC-C18, 3.0×50 mm, Agilent) with an HPLC system (Agilent 1100 Series) and detection at OD245 nm. For quantitative determination of Compound-7 and Compound-10F in rat and dog serum, serum proteins were also removed by acetonitrile precipitation before HPLC analysis as detailed above and detection at OD254 nm.

[6] = Measurement of serum level in rats by HPLC; type: in vivo, Sprague Dawley rats
Description: as §1

[7] = Tolerability / toxicity in dogs during four weeks of oral treatment; type: in vivo; conditions: up to an oral dose of 12.5 mg/kg/day
[8] = Sub-chronic oral toxicity in rats; type: in vivo, Sprague Dawley rats
Description: Sub-chronic toxicity studies in dogs (German Shepherd dogs) and rats (Sprague Dawley rats) were performed by the Center of Applied Analytical and Veterinary Studies, Cairo, Egypt.
The oral toxicity of alizarin (Compound-1) in rats was determined in a sub-chronic toxicity study. Rats were treated for 3 months with a once daily oral dose of alizarin of 25 mg/kg/day, 50 mg/kg/day and 100 mg/kg/day. […] The good tolerability of alizarin in rats and dogs is supported by previous observations in humans, which document that long-term treatment for several years with alizarin and alizarin-containing plant extracts is not toxic and was previously used to prevent recurrence of calcium-containing urinary stones (Lorenz et al., Methods Find. Exp. Clin. Pharmacol. 7, 637-643, 1985). Taken together, alizarin has good oral bioavailability and a wide therapeutic window.
Pharmacokinetic data of Compound-7 were determined as another representative TOMM6/Tomm6 inducer with a different chemical structure than alizarin (Compound-1). […] The oral bioavailability of Compound-7 in dogs was much higher than in rats because oral doses of Compound-7 required to achieve equivalent peak serum concentrations were approximately 10-fold higher in rats compared to dogs (FIG. 20B). Again, this observation is in agreement with the equivalent surface area dosage rule, according to which rats and mice usually require a 10-12-fold higher dose than dogs and humans. […] This second peak could reflect enterohepatic recirculation of Compound-7.

[9] = Toxic adverse effects during 3 months of treatment of Tg2576 AD mice; type: in vivo; conditions: daily dose of 10 mg/kg
TOMM6 [10] = biological target: T1, TOMM6; experiment: Tomm6 induction, test not described
[11] = rats, repeated once daily oral intake of 20 mg/kg/d

Compound | TOMM6 protein level in HEK cells (TOMM6 [1]) | hippocampal content of hyperphosphorylated PHF-Tau [2] | hippocampal neuronal loss [3] | hippocampal Tomm6 protein content (Tomm6 [4]) | further results
O=C(NCc1cccc(Cl)c1)c1coc(C2CCCNC2)n1 (stereo not shown) [Compound-3, N-[(3-chlorophenyl)methyl]-2-(3-piperidyl)oxazole-4-carboxamide] | inducers of TOMM6 |  |  |  | 
O=C(NCc1ccc(Cl)c(Cl)c1)c1coc(C2CCCNC2)n1 (stereo not shown) [Compound-4, N-[(3,4-dichlorophenyl)methyl]-2-(3-piperidyl)oxazole-4-carboxamide] | inducers of TOMM6 | decreased hippocampal PHF tau hyperphosphorylation | retarded overt neuronal loss | strong increase in hippocampal Tomm6 protein content | 
CCC(C)[C@H](N)c1nc(C(=O)NCc2ccc(Cl)c(Cl)c2)co1 (stereo partly drawn) [Compound-5, 2-[(1S)-1-amino-2-methyl-butyl]-N-[(3,4-dichlorophenyl)methyl]oxazole-4-carboxamide] | inducers of TOMM6 |  |  |  | 
CC(C)[C@H](N)c1nc(C(=O)NCc2ccc(Cl)c(Cl)c2)co1 [Compound-6, 2-[(1S)-1-amino-2-methyl-propyl]-N-[(3,4-dichlorophenyl)methyl]oxazole-4-carboxamide] | inducers of TOMM6 |  |  |  | 
Cc1nc(CN)cc(-c2ccc(Cl)cc2)c1C(N)=O [Compound-7, 6-(aminomethyl)-4-(4-chlorophenyl)-2-methyl-pyridine-3-carboxamide] | inducers of TOMM6 | decreased hippocampal PHF tau hyperphosphorylation | retarded overt neuronal loss | strong increase in hippocampal Tomm6 protein content | oral bioavailability / serum concentrations after oral intake [5]: has oral bioavailability; peak serum concentration ([5]; repeated once daily oral dose of 2 mg/kg): 0.59 µg/mL; peak serum concentration ([5]; repeated once daily oral dosing of 5 mg/kg): 1.56 µg/mL; peak serum concentration ([5]; repeated once daily oral dosing of 12.5 mg/kg): 3.96 µg/mL; oral bioavailability / serum concentrations after oral intake ([6]; rats): has oral bioavailability; oral doses required to achieve equivalent peak serum concentrations, higher in rats compared to dogs ([6]; rats vs dogs): approximately 10 fold; time of peak serum concentration [6, 11]: 1 h; time of second serum peak [6, 11]: 3 h; toxic side effects [7]: did not show any detectable toxic side effects; daily food intake ([8]; rats, daily oral dose of 100 mg/kg/d): slightly decreased daily food intake; toxic side effects ([8]; rats, up to an oral dose of 50 mg/kg/day, four weeks): did not show any detectable toxic side effects; difference between therapeutic and toxic doses (therapeutic index) ([8]; therapeutic dose 10 mg/kg once daily in rodent models): approximately 10 fold
Cc1nc(CN2C(=O)c3ccccc3C2=O)cc(-c2ccc(Cl)cc2Cl)c1C(N)=O [Compound-8, 4-(2,4-dichlorophenyl)-6-[(1,3-dioxoisoindolin-2-yl)methyl]-2-methyl-pyridine-3-carboxamide] | inducers of TOMM6 |  |  |  | 
Cc1nc(CN2C(=O)c3ccccc3C2=O)cc(-c2ccc(Cl)cc2)c1C(N)=O [Compound-9, 4-(4-chlorophenyl)-6-[(1,3-dioxoisoindolin-2-yl)methyl]-2-methyl-pyridine-3-carboxamide] | inducers of TOMM6 |  |  |  | 
Cc1nc(CO)cc(-c2ccc(Cl)cc2)c1C(N)=O [Compound-10, 4-(4-chlorophenyl)-6-(hydroxymethyl)-2-methyl-pyridine-3-carboxamide] | inducers of TOMM6 | significantly inhibited the hippocampal accumulation of hyperphosphorylated PHF tau | retarded the CUMS-induced hippocampal neuronal loss | significantly higher | toxic adverse effects [9]: did not show any detectable toxic adverse effects
C[C@@H]1CCO[C@H]2Cn3cc(C(=O)NCc4ccc(F)cc4F)c(=O)c(O)c3C(=O)N12 [dolutegravir] |  |  |  |  | Tomm6 induction (TOMM6 [10]): not a Tomm6 inducer
